The text below walks through data of EP0424670B1, “ZNS-active hexapeptides with antiamnestic activity” (HOECHST AKTIENGESELLSCHAFT, priority 1989, dated 1995).

Where a SMILES comes first, the peptide text is derived from it.

The nature of data set [1]: stability in water at 80°C for 8 days, checked by HPLC. The format is physicochemical. Particulars: 200 mg in 20 ml water, 8 days at 80°C, freeze-dried, HPLC detection at 220 nm. As for the experimental part: • a) 200 mg Ac-Met(O₂)-Glu-His-Phe-D-Lys-Phe-NH(CH₂)₈-NH₂ · 2 CH₃COOH wurden in 20 ml Wasser gelöst und 8 Tage auf 80°C erhitzt. Nach dem Abkühlen wurde gefriergetrocknet.

Data set [2] relates to Scopolamin-induzierte Amnesie. Nature of the data set: radial-maze test (8-arm radial maze), reversal of scopolamine-induced amnesia. The format is in vivo, Ratten. Particulars: Rattus norvegicus, po, rats, comparison compound, read-out: MED (minimal effektive Dosis). The source says:
(§1) Die erfindungsgemäße Verbindung ist aufgrund ihrer pharmakologischen Eigenschaften für die Behandlung cognitiver Dysfunktionen unterschiedlicher Genese, wie sie z.B. bei der Alzheimer'schen Krankheit oder der senilen Demenz auftreten, geeignet. Die Verbesserung cognitiver Funktionen durch die erfindungsgemäßen Verbindungen (nootrope Wirkung) wurde im Tierexperiment an Mäusen mittels des inhibitory (passive) avoidance-Tests (step-through-Modell) und an Ratten mittels des radial-maze-Tests (8-armiger radialer Irrgarten) geprüft. Es handelt sich hierbei um literaturbeschriebene Standardtests zur Prüfung von Lern-und Gedächtnisfunktionen im Tierexperiment. (Inhibitory avoidance J. Bures, O. Buresova und J. Huston in "Techniques and Basic Experiments for the Study of Brain and Behavior", Elsevier Scientific Publishers, Amsterdam 1983; Radial Maze: U. Stäubli, M. Baudry und G. Lynch, Behavioral and Neural Biology 40, 58-69 (1984).)
(§2) Entsprechend den genannten Literaturangaben wird eine Substanz dann als nootrop wirksam bezeichnet, wenn sie bei den Versuchstieren der durch Scopolamin, Elektroschock oder Inhibitoren der Proteinsynthese induzierte Erhöhung der Fehlerrate in diesen Tests entgegenwirkt oder sie gar aufzuheben vermag.
(§3) Die Versuche wurden nach den obenbeschriebenen Testverfahren durchgeführt. […]

Data set [3] concerns Scopolamin-induzierte Amnesie. Nature of the data set: inhibitory (passive) avoidance test (step-through model), reversal of scopolamine-induced amnesia. Particulars: Mus musculus, po, mice, comparison compound, read-out: MED (minimal effektive Dosis). In kind it is in vivo, Mäusen.
Source text: as §1, §2, §3

For `CC(=O)N[C@@H](CCS(C)(=O)=O)C(=O)N[C@@H](CCC(=O)O)C(=O)N[C@@H](Cc1c[nH]cn1)C(=O)N[C@@H](Cc1ccccc1)C(=O)N[C@H](CCCCN)C(=O)N[C@@H](Cc1ccccc1)C(=O)NCCCCCCCCN` [Ac-Met(O₂)-Glu-His-Phe-D-Lys-Phe-NH-(CH₂)₈-NH₂ · 2 CH₃COOH] (HELM PEPTIDE1{[ac].[CS(=O)(=O)CC[C@H](N[*:1])C(=O)[*:2]].E.H.F.[dK].F.[NCCCCCCCCN[*:1]]}$$$$V2.0), in data set [1], the “Zersetzung (HPLC-Untersuchung)” value is listed as “keine Zersetzung”. On the same count and under the same terms, the same measure for `CS(=O)(=O)CC[C@H](N)C(=O)N[C@@H](CCC(=O)O)C(=O)N[C@@H](Cc1c[nH]cn1)C(=O)N[C@@H](Cc1ccccc1)C(=O)N[C@H](CCCCN)C(=O)N[C@@H](Cc1ccccc1)C(=O)NCCCCCCCCN` [H-Met(O₂)-Glu-His-Phe-D-Lys-Phe-NH-(CH₂)₈-NH₂] (HELM PEPTIDE1{[CS(=O)(=O)CC[C@H](N)C(=O)[*:2]].E.H.F.[dK].F.[NCCCCCCCCN[*:1]]}$$$$V2.0): “starke Zersetzung”. For `NC(=O)CN1CCCC1=O` [Piracetam, 2-Oxo-1-pyrrolidinylessigsäureamid], the minimal effective dose in data set [2] and in data set [3] was 500 to 1000 mg/kg throughout.
